What all share (assay type): biochemical
Test [1] addresses T1, yeast topoisomerase 2 (yTop2) (Saccharomyces cerevisiae, UniProt P06786).
T1 construct: gene TOP2
T1 sequence (P06786 1-1428): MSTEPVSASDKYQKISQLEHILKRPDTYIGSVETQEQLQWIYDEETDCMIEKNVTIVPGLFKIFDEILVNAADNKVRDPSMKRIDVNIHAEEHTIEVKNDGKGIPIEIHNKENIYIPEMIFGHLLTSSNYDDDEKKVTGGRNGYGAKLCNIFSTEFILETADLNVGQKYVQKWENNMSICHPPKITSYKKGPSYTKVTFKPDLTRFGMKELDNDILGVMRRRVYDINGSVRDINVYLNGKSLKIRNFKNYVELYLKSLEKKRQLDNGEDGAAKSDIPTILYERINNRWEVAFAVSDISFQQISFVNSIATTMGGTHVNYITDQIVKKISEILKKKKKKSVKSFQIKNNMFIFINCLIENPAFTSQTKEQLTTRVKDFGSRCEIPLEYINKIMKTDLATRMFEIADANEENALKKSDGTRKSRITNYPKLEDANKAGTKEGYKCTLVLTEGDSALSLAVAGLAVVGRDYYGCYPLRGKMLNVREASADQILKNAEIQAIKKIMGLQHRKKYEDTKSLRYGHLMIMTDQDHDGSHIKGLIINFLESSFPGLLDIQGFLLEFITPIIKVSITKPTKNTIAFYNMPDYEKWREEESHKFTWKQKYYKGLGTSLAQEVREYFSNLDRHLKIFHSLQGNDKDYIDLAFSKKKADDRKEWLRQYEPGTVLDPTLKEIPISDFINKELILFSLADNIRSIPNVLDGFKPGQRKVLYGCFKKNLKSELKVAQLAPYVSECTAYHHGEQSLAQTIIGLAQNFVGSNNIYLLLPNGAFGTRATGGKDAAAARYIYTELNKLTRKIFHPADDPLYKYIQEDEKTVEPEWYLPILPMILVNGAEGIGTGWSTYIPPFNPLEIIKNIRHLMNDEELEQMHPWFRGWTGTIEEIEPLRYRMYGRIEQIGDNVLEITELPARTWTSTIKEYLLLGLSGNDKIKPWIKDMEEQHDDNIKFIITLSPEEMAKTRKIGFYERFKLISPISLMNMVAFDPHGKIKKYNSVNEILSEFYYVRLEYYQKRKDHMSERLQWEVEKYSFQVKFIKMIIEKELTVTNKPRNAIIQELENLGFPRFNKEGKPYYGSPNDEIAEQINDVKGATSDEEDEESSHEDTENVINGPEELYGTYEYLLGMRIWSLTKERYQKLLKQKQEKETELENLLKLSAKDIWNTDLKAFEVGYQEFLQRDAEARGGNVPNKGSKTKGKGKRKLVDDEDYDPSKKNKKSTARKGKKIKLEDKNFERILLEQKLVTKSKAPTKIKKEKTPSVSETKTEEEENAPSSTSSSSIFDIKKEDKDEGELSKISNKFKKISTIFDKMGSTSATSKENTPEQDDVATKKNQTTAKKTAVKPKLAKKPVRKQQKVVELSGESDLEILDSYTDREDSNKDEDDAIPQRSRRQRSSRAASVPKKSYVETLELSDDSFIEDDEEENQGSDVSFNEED
The test is described as follows: in vitro pUC18 plasmid linearization (DNA cleavage) assay, reference Top2 poison.

Test [2] has as its target T1, yeast topoisomerase 2 (yTop2). The test is described as follows: in vitro pUC18 plasmid linearization (DNA cleavage) assay; supported by TOP2 overexpression hypersensitivity and resistant top2 mutants.
In the next test the target is T2, human Top2α (Homo sapiens, UniProt P11388).
T2 construct: gene TOP2A
The test is described as follows: kinetoplast DNA decatenation assay with purified human TOP2-α.

T2 sequence (P11388 whole entry): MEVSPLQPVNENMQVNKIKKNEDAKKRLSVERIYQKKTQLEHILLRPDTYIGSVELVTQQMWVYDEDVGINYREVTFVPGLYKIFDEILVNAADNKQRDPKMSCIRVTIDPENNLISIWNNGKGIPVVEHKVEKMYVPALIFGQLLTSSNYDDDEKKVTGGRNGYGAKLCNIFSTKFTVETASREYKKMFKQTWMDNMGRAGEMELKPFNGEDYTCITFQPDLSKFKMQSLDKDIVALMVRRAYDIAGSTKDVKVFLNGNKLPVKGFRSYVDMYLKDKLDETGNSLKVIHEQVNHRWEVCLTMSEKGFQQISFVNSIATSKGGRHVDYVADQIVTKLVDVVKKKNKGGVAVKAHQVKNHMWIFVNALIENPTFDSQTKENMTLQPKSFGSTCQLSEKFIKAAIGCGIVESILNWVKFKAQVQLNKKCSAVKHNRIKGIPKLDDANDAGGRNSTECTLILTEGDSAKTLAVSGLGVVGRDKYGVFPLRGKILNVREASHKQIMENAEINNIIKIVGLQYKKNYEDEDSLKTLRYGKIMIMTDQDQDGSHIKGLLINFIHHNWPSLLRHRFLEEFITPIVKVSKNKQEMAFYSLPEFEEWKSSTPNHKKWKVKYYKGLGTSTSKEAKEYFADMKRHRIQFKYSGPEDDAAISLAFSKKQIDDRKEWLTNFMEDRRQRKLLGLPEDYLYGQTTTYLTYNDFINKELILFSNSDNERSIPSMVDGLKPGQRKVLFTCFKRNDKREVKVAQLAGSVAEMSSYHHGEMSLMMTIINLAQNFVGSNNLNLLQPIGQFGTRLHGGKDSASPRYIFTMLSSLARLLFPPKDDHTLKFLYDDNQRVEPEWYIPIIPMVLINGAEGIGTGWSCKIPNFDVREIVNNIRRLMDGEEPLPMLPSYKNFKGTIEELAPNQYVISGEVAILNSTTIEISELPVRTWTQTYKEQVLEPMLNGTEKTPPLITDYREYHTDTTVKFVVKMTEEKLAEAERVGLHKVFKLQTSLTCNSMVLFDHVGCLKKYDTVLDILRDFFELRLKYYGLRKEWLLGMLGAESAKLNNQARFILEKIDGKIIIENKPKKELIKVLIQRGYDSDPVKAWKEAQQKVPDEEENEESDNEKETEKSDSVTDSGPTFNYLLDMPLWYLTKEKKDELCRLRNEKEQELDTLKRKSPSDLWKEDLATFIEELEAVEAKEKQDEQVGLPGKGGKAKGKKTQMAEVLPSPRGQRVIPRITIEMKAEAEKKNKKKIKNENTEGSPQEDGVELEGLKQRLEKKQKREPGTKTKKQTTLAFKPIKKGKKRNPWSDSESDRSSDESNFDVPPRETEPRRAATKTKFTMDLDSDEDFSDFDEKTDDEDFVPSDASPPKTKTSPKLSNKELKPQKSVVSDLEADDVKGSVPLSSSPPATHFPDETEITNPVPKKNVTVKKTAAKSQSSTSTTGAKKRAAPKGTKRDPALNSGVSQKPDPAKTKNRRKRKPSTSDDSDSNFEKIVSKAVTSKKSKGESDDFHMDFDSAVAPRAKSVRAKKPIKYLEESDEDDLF

For `COc1cc([C@@H]2c3cc4c(cc3[C@@H](O[C@@H]3O[C@@H]5CO[C@@H](C)O[C@H]5[C@H](O)[C@H]3O)[C@H]3COC(=O)[C@H]23)OCO4)cc(OC)c1O` [ETOP, etoposide], the “in vitro pUC18 plasmid linearization (DNA cleavage) assay, reference Top2 poison” value in test [1] is given as “formation by yTop2 of DSBs in plasmid DNA (Fig. 7A & B), albeit less efficiently than etoposide”.
In the case of `c1ccc2nc3c(nc2c1)[nH]c1ccccc13` [LS1, 6H-Indolo [2,3-b] quinoxaline], in test [2], the “in vitro pUC18 plasmid linearization (DNA cleavage) assay; supported by TOP2 ove” value was “LS1 promotes the in vitro formation by yTop2 of DSBs in plasmid DNA (Fig. 7A & B)”. Further, the IC50 against human Top2α was found to be 3 µM.

The values are drawn from article PMC5310657, “Effects of an unusual poison identify a lifespan role for Topoisomerase 2 in Saccharomyces cerevisiae” (Aging (Albany NY), 2017).
